Target: VEGFR2, unphosphorylated (Homo sapiens (Human), UniProt P35968)
Test: VEGFR ADP GLO Assay
Type: biochemical

Chain of VEGFR2, unphosphorylated (P35968 20-1356): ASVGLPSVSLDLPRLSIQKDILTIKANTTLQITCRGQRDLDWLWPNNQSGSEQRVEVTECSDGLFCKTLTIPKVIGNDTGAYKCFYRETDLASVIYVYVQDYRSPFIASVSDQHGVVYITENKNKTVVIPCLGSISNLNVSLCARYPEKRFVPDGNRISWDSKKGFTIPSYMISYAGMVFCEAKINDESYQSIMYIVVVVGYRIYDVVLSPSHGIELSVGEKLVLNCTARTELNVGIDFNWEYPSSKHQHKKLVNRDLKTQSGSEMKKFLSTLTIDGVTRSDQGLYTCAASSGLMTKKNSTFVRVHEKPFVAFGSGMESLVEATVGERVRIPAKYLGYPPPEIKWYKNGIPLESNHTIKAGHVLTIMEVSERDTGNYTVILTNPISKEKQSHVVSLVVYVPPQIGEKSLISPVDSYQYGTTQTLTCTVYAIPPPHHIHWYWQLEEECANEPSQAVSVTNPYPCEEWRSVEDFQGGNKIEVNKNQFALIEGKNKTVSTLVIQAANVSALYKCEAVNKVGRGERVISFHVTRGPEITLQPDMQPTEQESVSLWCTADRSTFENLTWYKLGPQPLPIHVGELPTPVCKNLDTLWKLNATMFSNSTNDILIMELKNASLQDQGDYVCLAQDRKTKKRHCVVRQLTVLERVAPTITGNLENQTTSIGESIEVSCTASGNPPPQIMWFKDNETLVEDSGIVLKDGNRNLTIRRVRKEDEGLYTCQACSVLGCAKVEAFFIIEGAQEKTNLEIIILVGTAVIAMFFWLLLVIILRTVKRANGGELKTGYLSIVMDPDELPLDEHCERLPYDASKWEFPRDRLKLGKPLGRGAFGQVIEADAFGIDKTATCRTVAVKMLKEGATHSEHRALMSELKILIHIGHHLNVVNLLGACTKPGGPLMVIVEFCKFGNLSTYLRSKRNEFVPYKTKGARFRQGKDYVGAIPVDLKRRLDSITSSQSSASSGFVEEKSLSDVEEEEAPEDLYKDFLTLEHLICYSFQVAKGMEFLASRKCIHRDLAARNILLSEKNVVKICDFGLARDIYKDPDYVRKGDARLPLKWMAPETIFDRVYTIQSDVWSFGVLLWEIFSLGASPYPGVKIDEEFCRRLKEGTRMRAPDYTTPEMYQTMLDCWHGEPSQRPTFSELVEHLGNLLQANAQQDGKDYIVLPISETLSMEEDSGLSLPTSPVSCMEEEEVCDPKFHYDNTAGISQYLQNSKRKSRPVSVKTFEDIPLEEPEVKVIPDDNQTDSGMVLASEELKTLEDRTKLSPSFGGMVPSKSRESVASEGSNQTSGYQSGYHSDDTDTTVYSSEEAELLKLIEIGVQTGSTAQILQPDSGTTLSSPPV

| SMILES | IC50 [µM] |
| --- | --- |
| Cc1ncc(C(=O)NCCN2CCCC2(C)C)cc1NC(=O)c1cnn2cc(-c3cnn(C)c3)sc12 [Example 8, N-(5-((2-(2,2-dimethylpyrrolidin-1-yl)ethyl)carbamoyl)-2-methylpyridin-3-yl)-2-(1-methyl-1H-pyrazol-4-yl)pyrazolo[5,1-b]thiazole-7-carboxamide] | > 10 |
| Cc1ncc(C(=O)NCCN2CCC(F)(F)C2)cc1NC(=O)c1cnn2cc(-c3cnn(C)c3)sc12 [Example 120, N-(5-((2-(3,3-difluoropyrrolidin-1-yl)ethyl)carbamoyl)-2-methylpyridin-3-yl)-2-(1-methyl-1H-pyrazol-4-yl)pyrazolo[5,1-b]thiazole-7-carboxamide] | > 7.5 |
| COCCn1cc(-c2cn3ncc(C(=O)Nc4cc(C(=O)NCCN5CC(C)(C)C5)cnc4C)c3s2)cn1 [Example 166, N-(5-((2-(3,3-dimethylazetidin-1-yl)ethyl)carbamoyl)-2-methylpyridin-3-yl)-2-(1-(2-methoxyethyl)-1H-pyrazol-4-yl)pyrazolo[5,1-b]thiazole-7-carboxamide] | > 7.5 |
| Cc1ncc(C(=O)NCCN2CCC23CCC3)cc1NC(=O)c1cnn2cc(-c3cn(C)nc3C)sc12 [Example 175, N-(5-((2-(1-azaspiro[3.3]heptan-1-yl)ethyl)carbamoyl)-2-methylpyridin-3-yl)-2-(1,3-dimethyl-1H-pyrazol-4-yl)pyrazolo[5,1-b]thiazole-7-carboxamide] | > 7.5 |
| Cc1ncc(C(=O)NCCN2CC3CCC2CC3)cc1NC(=O)c1cnn2cc(-c3cnn(C4COC4)c3)sc12 [Example 144, N-(5-((2-(2-azabicyclo[2.2.2]octan-2-yl)ethyl)carbamoyl)-2-methylpyridin-3-yl)-2-(1-(oxetan-3-yl)-1H-pyrazol-4-yl)pyrazolo[5,1-b]thiazole-7-carboxamide] | > 7.5 |
| Cc1ncc(C(=O)NCCN2CC(F)(F)C2)cc1NC(=O)c1cnn2cc(-c3cnn(C)c3)sc12 [Example 125, N-(5-((2-(3,3-difluoroazetidin-1-yl)ethyl)carbamoyl)-2-methylpyridin-3-yl)-2-(1-methyl-1H-pyrazol-4-yl)pyrazolo[5,1-b]thiazole-7-carboxamide] | > 7.5 |
| Cc1ncc(C(=O)NCCN2CC3CCC2CC3)cc1NC(=O)c1cnn2cc(-c3cnn(C)c3C)sc12 [Example 171, N-(5-((2-(2-azabicyclo[2.2.2]octan-2-yl)ethyl)carbamoyl)-2-methylpyridin-3-yl)-2-(1,5-dimethyl-1H-pyrazol-4-yl)pyrazolo[5,1-b]thiazole-7-carboxamide] | > 7.5 |
| Cc1ncc(C(=O)NCCN2C3CCCC2CCC3)cc1NC(=O)c1cnn2cc(-c3cnn(C)c3)sc12 [Example 4, N-(5-((2-(9-azabicyclo[3.3.1]nonan-9-yl)ethyl)carbamoyl)-2-methylpyridin-3-yl)-2-(1-methyl-1H-pyrazol-4-yl)pyrazolo[5,1-b]thiazole-7-carboxamide] | > 7.5 |
| Cc1ncc(C(=O)NCCN2CC3CCC2CC3)cc1NC(=O)c1cnn2cc(-c3cccnc3)sc12 [Example 149, N-(5-((2-(2-azabicyclo[2.2.2]octan-2-yl)ethyl)carbamoyl)-2-methylpyridin-3-yl)-2-(pyridin-3-yl)pyrazolo[5,1-b]thiazole-7-carboxamide] | > 7.5 |
| Cc1ncc(C(=O)NCCN2CCC3(CC3)C2)cc1NC(=O)c1cnn2cc(-c3cn(C)nc3C)sc12 [Example 177, N-(5-((2-(5-azaspiro[2.4]heptan-5-yl)ethyl)carbamoyl)-2-methylpyridin-3-yl)-2-(1,3-dimethyl-1H-pyrazol-4-yl)pyrazolo[5,1-b]thiazole-7-carboxamide] | > 7.5 |
| COCCn1cc(-c2cn3ncc(C(=O)Nc4cc(C(=O)NCCN5CC6(CCC6)C5)cnc4C)c3s2)cn1 [Example 168, N-(5-((2-(2-azaspiro[3.3]heptan-2-yl)ethyl)carbamoyl)-2-methylpyridin-3-yl)-2-(1-(2-methoxyethyl)-1H-pyrazol-4-yl)pyrazolo[5,1-b]thiazole-7-carboxamide] | > 7.5 |
| Cc1ncc(C(=O)NCCN2CC(C)(C)C2)cc1NC(=O)c1cnn2cc(-c3cnn(C)c3)sc12 [Example 126, N-(5-((2-(3,3-dimethylazetidin-1-yl)ethyl)carbamoyl)-2-methylpyridin-3-yl)-2-(1-methyl-1H-pyrazol-4-yl)pyrazolo[5,1-b]thiazole-7-carboxamide] | > 7.5 |
| COCCN(CCNC(=O)c1cnc(C)c(NC(=O)c2cnn3cc(-c4cnn(C)c4)sc23)c1)C1CCC1 [Example 115, N-(5-((2-(cyclobutyl(2-methoxyethyl)amino)ethyl)carbamoyl)-2-methylpyridin-3-yl)-2-(1-methyl-1H-pyrazol-4-yl)pyrazolo[5,1-b]thiazole-7-carboxamide] | > 7.5 |
| COCCN(CCNC(=O)c1cnc(C)c(NC(=O)c2cnn3cc(-c4cnn(C)c4)sc23)c1)CCOC [Example 128, N-(5-((2-(bis(2-methoxyethyl)amino)ethyl)carbamoyl)-2-methylpyridin-3-yl)-2-(1-methyl-1H-pyrazol-4-yl)pyrazolo[5,1-b]thiazole-7-carboxamide] | > 7.5 |
| COCCn1nc(C)c(-c2cn3ncc(C(=O)Nc4cc(NC(=O)CCN5CC6CCC(C5)O6)cnc4C)c3s2)c1C [Example 102, N-(5-(3-(8-oxa-3-azabicyclo[3.2.1]octan-3-yl)propanamido)-2-methylpyridin-3-yl)-2-(1-(2-methoxyethyl)-3,5-dimethyl-1H-pyrazol-4-yl)pyrazolo[5,1-b]thiazole-7-carboxamide] | > 7.5 |
| COCCn1cc(-c2cn3ncc(C(=O)Nc4cc(C(=O)NCCN5CC6CCC5CC6)cnc4C)c3s2)cn1 [Example 142, N-(5-((2-(2-azabicyclo[2.2.2]octan-2-yl)ethyl)carbamoyl)-2-methylpyridin-3-yl)-2-(1-(2-methoxyethyl)-1H-pyrazol-4-yl)pyrazolo[5,1-b]thiazole-7-carboxamide] | > 7.5 |
| Cc1ncc(C(=O)NCCN2CC3(CCC3)C2)cc1NC(=O)c1cnn2cc(-c3cnn(C)c3)sc12 [Example 124, N-(5-((2-(2-azaspiro[3.3]heptan-2-yl)ethyl)carbamoyl)-2-methylpyridin-3-yl)-2-(1-methyl-1H-pyrazol-4-yl)pyrazolo[5,1-b]thiazole-7-carboxamide] | > 7.5 |
| Cc1ncc(C(=O)NCCN2CCCC23COC3)cc1NC(=O)c1cnn2cc(-c3cn(C)nc3C)sc12 [Example 176, N-(5-((2-(2-oxa-5-azaspiro[3.4]octan-5-yl)ethyl)carbamoyl)-2-methylpyridin-3-yl)-2-(1,3-dimethyl-1H-pyrazol-4-yl)pyrazolo[5,1-b]thiazole-7-carboxamide] | > 7.5 |
| Cc1ncc(NC(=O)CCCN2CCC[C@@H]2C)cc1NC(=O)c1cnn2cc(-c3cnn(C)c3)sc12 [Example 106, (S)-2-(1-methyl-1H-pyrazol-4-yl)-N-(2-methyl-5-(4-(2-methylpyrrolidin-1-yl)butanamido)pyridin-3-yl)pyrazolo[5,1-b]thiazole-7-carboxamide] | > 7.5 |
| Cc1ncc(C(=O)NCCN2CCC3(CC3)C2)cc1NC(=O)c1cnn2cc(-c3cnn(C)c3)sc12 [Example 118, N-(5-((2-(5-azaspiro[2.4]heptan-5-yl)ethyl)carbamoyl)-2-methylpyridin-3-yl)-2-(1-methyl-1H-pyrazol-4-yl)pyrazolo[5,1-b]thiazole-7-carboxamide] | > 7.5 |
